{"source": "ChEMBL document CHEMBL5154674", "about": "“ARN25068, a versatile starting point towards triple GSK-3β/FYN/DYRK1A inhibitors to tackle tau-related neurological disorders” (Eur J Med Chem, 2022)", "test_system": "U2OS", "assay": "Cytotoxic effect on human U2OS cells transfected with Tau0N4R-TM-tGFP at 25 to 100 uM by fluorescence based microscopy", "type": "toxicity, cell-based", "conditions": "dose 25-100 µM"}
{"compound": "c1ccc(CNc2nc(Nc3cc(C4CC4)[nH]n3)c3sccc3n2)cc1", "values": [{"measurement": "Activity", "value": "Toxic"}]}
